Experimental data: ChEMBL document CHEMBL5223126, “Development of selective FGFR1 degraders using a Rapid synthesis of proteolysis targeting Chimera (Rapid-TAC) platform” (Bioorg Med Chem Lett, 2022)
Active and inactive are the calls of the source. The rule behind the calls is not given here.

Assays:
[1] = target: T1, Protein cereblon/Fibroblast growth factor receptor 1 (Homo sapiens) (UniProt P11362+Q96SW2); test: PROTAC activity at FGFR1/CRBN in human MCF7 cells assessed as FGFR1 degradation at 100 nM incubated for 6 hrs by Western blot analysis; type: cell-based
[2] = test system: DMS-114; test: Antiproliferative activity against human DMS-114 cells assessed as inhibition of cell growth incubated for 120 hrs by MTT assay; type: functional, cell-based; conditions: DMS-114, 120 h
[3] = test system: NCI-H1581; test: Antiproliferative activity against human NCI-H1581 cells assessed as inhibition of cell growth incubated for 120 hrs by MTT assay; type: functional, cell-based; conditions: NCI-H1581, 120 h
[4] = target: Protein cereblon/Fibroblast growth factor receptor 2 (Homo sapiens) (UniProt P21802+Q96SW2); test: PROTAC activity at FGFR2/CRBN in human MCF7 cells assessed as FGFR2 degradation at 0.1 to 10 uM incubated for 6 hrs by Western blot analysis; type: cell-based; conditions: dose 0.1-10 µM
[5] = target: T1, Protein cereblon/Fibroblast growth factor receptor 1 (Homo sapiens); test: PROTAC activity at FGFR1/CRBN in human MCF7 cells assessed as FGFR1 degradation at 0.1 to 10 uM incubated for 6 hrs by Western blot analysis; type: cell-based; conditions: dose 0.1-10 µM
[6] = target: Protein cereblon/Fibroblast growth factor receptor 4 (Homo sapiens) (UniProt P22455+Q96SW2); test: PROTAC activity at FGFR4/CRBN in human MCF7 cells assessed as FGFR4 degradation at 0.1 to 10 uM incubated for 6 hrs by Western blot analysis; type: cell-based; conditions: dose 0.1-10 µM
[7] = target: Protein cereblon/Fibroblast growth factor receptor 3 (Homo sapiens) (UniProt P22607+Q96SW2); test: PROTAC activity at FGFR3/CRBN in human MCF7 cells assessed as FGFR3 degradation at 0.1 to 10 uM incubated for 6 hrs by Western blot analysis; type: cell-based; conditions: dose 0.1-10 µM
[8] = target: von Hippel-Lindau disease tumor suppressor/Fibroblast growth factor receptor 1 (Homo sapiens) (UniProt P11362+P40337); test: PROTAC activity at FGFR1/VHL in human MCF7 cells assessed as FGFR1 degradation at 100 nM incubated for 6 hrs by Western blot analysis; type: cell-based
[9] = target: T1, Protein cereblon/Fibroblast growth factor receptor 1 (Homo sapiens); test: PROTAC activity at FGFR1/CRBN in human DMS-114 cells assessed as FGFR1 degradation at 0.1 to 10 uM incubated for 6 hrs by Western blot analysis; type: cell-based; conditions: dose 0.1-10 µM
[10] = target: T1, Protein cereblon/Fibroblast growth factor receptor 1 (Homo sapiens); test: PROTAC activity at FGFR1/CRBN in human NCI-H1581 cells assessed as FGFR1 degradation at 0.1 to 10 uM incubated for 6 hrs by Western blot analysis; type: cell-based; conditions: dose 0.1-10 µM

Chain of von Hippel-Lindau disease tumor suppressor/Fibroblast growth factor receptor 1 (Homo sapiens) (P11362 22-822 limits assumed): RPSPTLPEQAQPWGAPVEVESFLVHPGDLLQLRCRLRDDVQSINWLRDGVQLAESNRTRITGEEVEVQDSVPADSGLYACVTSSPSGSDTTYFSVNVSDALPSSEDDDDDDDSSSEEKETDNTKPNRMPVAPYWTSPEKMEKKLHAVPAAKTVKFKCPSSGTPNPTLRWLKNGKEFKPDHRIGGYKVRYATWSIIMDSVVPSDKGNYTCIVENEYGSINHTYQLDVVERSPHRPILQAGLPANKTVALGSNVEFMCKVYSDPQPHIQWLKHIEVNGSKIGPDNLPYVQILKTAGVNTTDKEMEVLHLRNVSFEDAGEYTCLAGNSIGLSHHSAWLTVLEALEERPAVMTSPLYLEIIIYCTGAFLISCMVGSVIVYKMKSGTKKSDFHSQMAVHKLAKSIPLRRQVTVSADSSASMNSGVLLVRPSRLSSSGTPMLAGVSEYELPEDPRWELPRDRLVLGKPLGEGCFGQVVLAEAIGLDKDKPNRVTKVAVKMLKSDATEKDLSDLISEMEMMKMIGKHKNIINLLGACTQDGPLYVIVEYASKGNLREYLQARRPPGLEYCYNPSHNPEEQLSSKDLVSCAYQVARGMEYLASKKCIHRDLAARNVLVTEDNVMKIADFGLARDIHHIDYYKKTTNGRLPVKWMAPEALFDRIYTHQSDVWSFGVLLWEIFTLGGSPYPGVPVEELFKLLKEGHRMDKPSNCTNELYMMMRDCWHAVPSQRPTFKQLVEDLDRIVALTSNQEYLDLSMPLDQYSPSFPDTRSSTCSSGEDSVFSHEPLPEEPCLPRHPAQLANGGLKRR
Chain of von Hippel-Lindau disease tumor suppressor/Fibroblast growth factor receptor 1 (Homo sapiens) (P40337 whole entry partner): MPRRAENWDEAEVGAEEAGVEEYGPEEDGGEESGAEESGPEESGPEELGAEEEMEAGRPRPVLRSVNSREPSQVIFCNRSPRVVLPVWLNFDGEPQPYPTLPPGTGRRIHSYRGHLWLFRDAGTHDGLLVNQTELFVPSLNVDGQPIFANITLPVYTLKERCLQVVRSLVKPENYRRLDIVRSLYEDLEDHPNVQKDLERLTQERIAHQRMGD
T1 sequence (P11362 whole entry, looked up): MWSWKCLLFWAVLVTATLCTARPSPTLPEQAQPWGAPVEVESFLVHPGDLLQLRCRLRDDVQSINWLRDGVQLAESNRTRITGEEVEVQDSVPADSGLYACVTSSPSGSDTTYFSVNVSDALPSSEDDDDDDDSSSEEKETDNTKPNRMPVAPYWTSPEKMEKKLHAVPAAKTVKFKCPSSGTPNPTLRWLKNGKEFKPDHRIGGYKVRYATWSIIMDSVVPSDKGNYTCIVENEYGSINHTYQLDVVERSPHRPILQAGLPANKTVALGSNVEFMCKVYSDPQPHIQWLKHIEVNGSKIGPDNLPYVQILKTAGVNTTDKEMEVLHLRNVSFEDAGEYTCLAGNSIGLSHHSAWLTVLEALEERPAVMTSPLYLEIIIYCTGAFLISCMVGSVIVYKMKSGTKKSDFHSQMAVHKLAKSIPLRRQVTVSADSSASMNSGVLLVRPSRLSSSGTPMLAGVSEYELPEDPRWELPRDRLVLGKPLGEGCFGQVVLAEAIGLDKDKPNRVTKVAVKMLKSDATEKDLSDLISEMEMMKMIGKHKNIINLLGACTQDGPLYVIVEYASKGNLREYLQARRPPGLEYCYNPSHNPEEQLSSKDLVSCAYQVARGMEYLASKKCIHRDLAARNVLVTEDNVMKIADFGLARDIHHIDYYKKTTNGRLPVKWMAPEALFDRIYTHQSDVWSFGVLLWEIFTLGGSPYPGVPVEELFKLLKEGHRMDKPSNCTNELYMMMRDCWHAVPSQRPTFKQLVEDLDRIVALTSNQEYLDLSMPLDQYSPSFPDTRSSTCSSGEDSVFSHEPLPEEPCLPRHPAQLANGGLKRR
T1 sequence (Q96SW2 whole entry, looked up): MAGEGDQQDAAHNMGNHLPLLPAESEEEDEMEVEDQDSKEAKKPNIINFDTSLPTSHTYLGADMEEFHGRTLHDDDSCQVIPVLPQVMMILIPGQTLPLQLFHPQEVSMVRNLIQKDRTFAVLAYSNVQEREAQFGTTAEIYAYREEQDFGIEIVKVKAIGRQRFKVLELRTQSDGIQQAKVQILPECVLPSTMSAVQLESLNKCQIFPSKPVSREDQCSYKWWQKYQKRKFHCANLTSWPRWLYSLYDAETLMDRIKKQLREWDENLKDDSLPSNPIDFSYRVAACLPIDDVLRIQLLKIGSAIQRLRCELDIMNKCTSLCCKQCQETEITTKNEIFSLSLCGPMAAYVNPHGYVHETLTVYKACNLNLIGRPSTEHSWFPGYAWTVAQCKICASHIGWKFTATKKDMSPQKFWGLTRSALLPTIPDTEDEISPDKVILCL
Chain of Protein cereblon/Fibroblast growth factor receptor 3 (Homo sapiens) (P22607 whole entry, looked up): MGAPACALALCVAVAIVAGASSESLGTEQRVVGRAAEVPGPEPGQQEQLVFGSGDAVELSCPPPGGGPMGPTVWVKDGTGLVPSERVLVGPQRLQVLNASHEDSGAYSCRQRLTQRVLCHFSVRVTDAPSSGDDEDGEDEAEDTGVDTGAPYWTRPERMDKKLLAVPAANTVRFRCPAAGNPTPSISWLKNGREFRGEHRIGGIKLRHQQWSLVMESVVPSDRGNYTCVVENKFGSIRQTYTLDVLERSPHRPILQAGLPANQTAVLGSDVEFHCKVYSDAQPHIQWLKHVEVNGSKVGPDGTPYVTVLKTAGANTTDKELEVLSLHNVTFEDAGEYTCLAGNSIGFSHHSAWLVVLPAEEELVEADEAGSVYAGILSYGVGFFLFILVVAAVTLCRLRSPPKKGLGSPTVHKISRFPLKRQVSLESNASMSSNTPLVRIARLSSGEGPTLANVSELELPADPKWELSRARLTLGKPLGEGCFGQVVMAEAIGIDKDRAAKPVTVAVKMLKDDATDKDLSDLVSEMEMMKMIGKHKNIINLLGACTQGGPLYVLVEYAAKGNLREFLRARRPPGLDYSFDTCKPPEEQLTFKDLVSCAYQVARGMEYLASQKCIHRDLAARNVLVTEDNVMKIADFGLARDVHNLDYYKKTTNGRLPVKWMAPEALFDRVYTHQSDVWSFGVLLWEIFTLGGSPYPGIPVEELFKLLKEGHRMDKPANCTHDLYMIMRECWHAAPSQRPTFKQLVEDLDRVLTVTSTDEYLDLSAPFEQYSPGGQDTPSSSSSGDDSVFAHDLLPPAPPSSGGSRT
Chain of Protein cereblon/Fibroblast growth factor receptor 3 (Homo sapiens) (Q96SW2 whole entry, looked up): as the sequence (Q96SW2 whole entry, looked up) above
Chain of Protein cereblon/Fibroblast growth factor receptor 2 (Homo sapiens) (P21802 22-821 limits assumed): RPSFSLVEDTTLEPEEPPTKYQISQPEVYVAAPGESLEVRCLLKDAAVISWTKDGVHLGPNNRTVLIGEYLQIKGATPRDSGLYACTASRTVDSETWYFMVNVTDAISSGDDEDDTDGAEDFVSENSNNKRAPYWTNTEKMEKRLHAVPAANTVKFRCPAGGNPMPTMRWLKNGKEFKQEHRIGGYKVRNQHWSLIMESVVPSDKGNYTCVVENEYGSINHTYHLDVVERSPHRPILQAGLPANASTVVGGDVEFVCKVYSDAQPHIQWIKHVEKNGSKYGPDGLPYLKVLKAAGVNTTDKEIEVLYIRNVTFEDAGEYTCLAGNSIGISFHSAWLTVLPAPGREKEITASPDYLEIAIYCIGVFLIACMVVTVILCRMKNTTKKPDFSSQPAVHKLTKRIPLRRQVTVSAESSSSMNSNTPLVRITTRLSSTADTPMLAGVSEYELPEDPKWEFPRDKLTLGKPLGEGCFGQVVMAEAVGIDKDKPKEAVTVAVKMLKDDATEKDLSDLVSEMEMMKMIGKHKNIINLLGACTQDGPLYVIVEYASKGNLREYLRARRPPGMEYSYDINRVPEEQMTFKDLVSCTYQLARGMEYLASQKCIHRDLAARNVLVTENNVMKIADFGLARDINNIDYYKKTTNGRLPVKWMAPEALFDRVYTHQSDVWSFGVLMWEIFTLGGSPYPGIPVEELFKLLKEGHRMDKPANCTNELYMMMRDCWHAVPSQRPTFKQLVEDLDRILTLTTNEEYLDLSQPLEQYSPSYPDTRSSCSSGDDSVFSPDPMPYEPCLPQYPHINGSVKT
Chain of Protein cereblon/Fibroblast growth factor receptor 2 (Homo sapiens) (Q96SW2 whole entry partner): as the sequence (Q96SW2 whole entry, looked up) above
Chain of Protein cereblon/Fibroblast growth factor receptor 4 (Homo sapiens) (P22455 whole entry, looked up): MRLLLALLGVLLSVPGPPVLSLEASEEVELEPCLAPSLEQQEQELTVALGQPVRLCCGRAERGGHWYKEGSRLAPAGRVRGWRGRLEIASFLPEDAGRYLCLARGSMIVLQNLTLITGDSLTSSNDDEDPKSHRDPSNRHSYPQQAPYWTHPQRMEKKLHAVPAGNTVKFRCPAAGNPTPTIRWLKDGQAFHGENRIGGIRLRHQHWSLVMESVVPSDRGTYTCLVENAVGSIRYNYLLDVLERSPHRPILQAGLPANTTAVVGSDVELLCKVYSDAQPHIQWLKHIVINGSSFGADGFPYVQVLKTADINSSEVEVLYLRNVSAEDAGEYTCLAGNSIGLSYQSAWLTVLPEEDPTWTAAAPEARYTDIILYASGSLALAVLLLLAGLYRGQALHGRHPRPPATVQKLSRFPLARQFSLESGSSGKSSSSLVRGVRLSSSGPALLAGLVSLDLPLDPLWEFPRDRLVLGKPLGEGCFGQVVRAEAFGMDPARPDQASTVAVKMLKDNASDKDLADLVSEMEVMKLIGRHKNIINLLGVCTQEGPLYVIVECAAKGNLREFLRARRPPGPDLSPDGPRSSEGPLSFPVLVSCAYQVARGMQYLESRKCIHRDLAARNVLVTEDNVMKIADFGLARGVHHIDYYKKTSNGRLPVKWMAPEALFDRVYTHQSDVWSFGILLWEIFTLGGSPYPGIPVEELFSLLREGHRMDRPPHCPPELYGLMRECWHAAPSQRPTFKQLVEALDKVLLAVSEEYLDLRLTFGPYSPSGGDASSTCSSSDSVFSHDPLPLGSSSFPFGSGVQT
Chain of Protein cereblon/Fibroblast growth factor receptor 4 (Homo sapiens) (Q96SW2 whole entry, looked up): as the sequence (Q96SW2 whole entry, looked up) above

COc1cc(CCc2cc(NC(=O)c3ccc(N4C[C@@H](C)N(CC(=O)N/N=C/c5ccc(OCCCCC(=O)NCC#Cc6cccc7c6CN(C6CCC(=O)NC6=O)C7=O)cc5)[C@@H](C)C4)cc3)n[nH]2)cc(OC)c1 (stereo not given in full)
Activity [1]: Active

COc1cc(CCc2cc(NC(=O)c3ccc(N4C[C@@H](C)N(CC(=O)NCCc5ccc(OCC(=O)N[C@H](C(=O)N6C[C@H](O)C[C@H]6C(=O)N[C@@H](C)c6ccc(-c7scnc7C)cc6)C(C)(C)C)cc5)[C@@H](C)C4)cc3)n[nH]2)cc(OC)c1
IC50 [2]: 139 nM
IC50 [3]: 160 nM

COc1cc(CCc2cc(NC(=O)c3ccc(N4C[C@@H](C)N(CC(=O)N/N=C/c5ccc(OCCOCCOCCOCC(=O)NCC#Cc6cccc7c6CN(C6CCC(=O)NC6=O)C7=O)cc5)[C@@H](C)C4)cc3)n[nH]2)cc(OC)c1 (stereo not given in full)
Activity [4]: inactive
Activity [5]: Active
Activity [6]: inactive
Activity [7]: inactive

COc1cc(CCc2cc(NC(=O)c3ccc(N4C[C@@H](C)N(CC(=O)N/N=C/c5ccc(OCCOCCOCCOCCOCC(=O)N[C@H](C(=O)N6C[C@H](O)C[C@H]6C(=O)N[C@@H](C)c6ccc(-c7scnc7C)cc6)C(C)(C)C)cc5)[C@@H](C)C4)cc3)n[nH]2)cc(OC)c1
Activity [8]: Active

COc1cc(CCc2cc(NC(=O)c3ccc(N4C[C@@H](C)N(CC(=O)N/N=C/c5ccc(OCCOCCOCCOCCOCCOCC(=O)NCC#Cc6cccc7c6CN(C6CCC(=O)NC6=O)C7=O)cc5)[C@@H](C)C4)cc3)n[nH]2)cc(OC)c1 (stereo not given in full)
Activity [4]: inactive
Activity [5]: Active
Activity [6]: inactive
Activity [7]: inactive

COc1cc(CCc2cc(NC(=O)c3ccc(N4C[C@@H](C)N(CC(=O)NCCc5ccc(OCCOCCOCC(=O)NC#Cc6cccc7c6CN(C6CCC(=O)NC6=O)C7=O)cc5)[C@@H](C)C4)cc3)n[nH]2)cc(OC)c1 (stereo not given in full)
Activity [5]: Active
Activity [9]: inactive
Activity [10]: inactive

COc1cc(CCc2cc(NC(=O)c3ccc(N4C[C@@H](C)N(CC(=O)N/N=C/c5ccc(OCCOCCOCCOCC(=O)N[C@H](C(=O)N6C[C@H](O)C[C@H]6C(=O)N[C@@H](C)c6ccc(-c7scnc7C)cc6)C(C)(C)C)cc5)[C@@H](C)C4)cc3)n[nH]2)cc(OC)c1
Activity [8]: Active

COc1cc(CCc2cc(NC(=O)c3ccc(N4C[C@@H](C)N[C@@H](C)C4)cc3)n[nH]2)cc(OC)c1 [FEXAGRATINIB]
IC50 [2]: 14 nM
IC50 [3]: 4 nM

COc1cc(CCc2cc(NC(=O)c3ccc(N4C[C@@H](C)N(CC(=O)N/N=C/c5ccc(OCCOCCOCC(=O)NCC#Cc6cccc7c6CN(C6CCC(=O)NC6=O)C7=O)cc5)[C@@H](C)C4)cc3)n[nH]2)cc(OC)c1 (stereo not given in full)
Activity [1]: Active

COc1cc(CCc2cc(NC(=O)c3ccc(N4C[C@@H](C)N(CC(=O)N/N=C\c5ccc(OCCCCC(=O)N[C@H](C(=O)N6C[C@H](O)C[C@H]6C(=O)N[C@@H](C)c6ccc(-c7scnc7C)cc6)C(C)(C)C)cc5)[C@@H](C)C4)cc3)n[nH]2)cc(OC)c1
Activity [8]: Active

COc1cc(CCc2cc(NC(=O)c3ccc(N4C[C@@H](C)N(CC(=O)N/N=C/c5ccc(OCCOCC(=O)NCC#Cc6cccc7c6CN(C6CCC(=O)NC6=O)C7=O)cc5)[C@@H](C)C4)cc3)n[nH]2)cc(OC)c1 (stereo not given in full)
Activity [4]: inactive
Activity [5]: Active
Activity [6]: inactive
Activity [7]: inactive

COc1cc(CCc2cc(NC(=O)c3ccc(N4C[C@@H](C)N(CC(=O)N/N=C\c5ccc(OCC(=O)N[C@H](C(=O)N6C[C@H](O)C[C@H]6C(=O)N[C@@H](C)c6ccc(-c7scnc7C)cc6)C(C)(C)C)cc5)[C@@H](C)C4)cc3)n[nH]2)cc(OC)c1
Activity [8]: Active
